Source: the NIST ThermoML archive (doi:10.1016/j.fluid.2010.05.013)
± gives the expanded uncertainty stated by the source.

Conditions: visual observation

Normal melting temperature (Crystal) | Structure (SMILES) | Normal melting temperature (Metastable crystal)
 | CCn1cc[n+](C)c1.O=S(=O)([N-]S(=O)(=O)C(F)(F)F)C(F)(F)F | -17.00 ± 2 °C
17 ± 0.17 °C | CC(O)C(=O)O (stereo not drawn) [2-hydroxypropanoic acid] | 
-20.83 ± 0.17 °C | CCC(=O)O [propanoic acid] | 
